# Source: patent US20250152559A1, “METHODS FOR TREATING MYC-AMPLIFIED CANCER” (The Governing Council of the University of Toronto, priority 2023, published 2025)
# Legend:
# [1] = test system: p-4EBP1 and EGR1 expression in PDOX; assay: IHC of time-matched PDOX from brains of treated mice; assay type: in vivo; conditions: PDOX after final dose, vs vehicle-treated PDOX
# Procedure: To determine whether mechanisms identified in vitro extend to the in vivo orthotopic model, time-matched PDOX were isolated from the brains of BAY-treated mice after the final dose of BAY was administered. […] An infrequent EGR1^+ subpopulation of tumor cells was also detected, which varied in the levels of nuclear EGR1 expression (FIG. 10H).
# FFPE tissues were sectioned onto slides and then deparaffinized prior to analysis. Samples were stained with H&E for histological examination. In parallel, sections were blocked in 5% BSA (anti-Ki67, anti-4E-BP1 Thr37/46, anti-DHODH) or 5% NGS (anti-EGR1) and stained with primary antibody at 4° C. overnight. Rabbit anti-Ki67 (Thermo Fisher Scientific; Catalogue #RM-9106-S0) was diluted 1:100, rabbit anti-EGR1 (Cell Signaling Technologies; catalogue #4145) was diluted 1:200, rabbit anti-4E-BP1 Thr37/46 (Cell Signaling Technologies; catalogue #2855) was diluted 1:1000, and rabbit anti-DHODH (Proteintech 14877-1-AP) was diluted 1:200. Anti-rabbit HRP-conjugated secondary antibodies (Abcam; Catalogue #ab214880) were used with DAB for development (Vector Laboratories; Catalogue #SK-4100). All slides were scanned using Image Scope (Aperio).
# [2] = Parallel artificial membrane permeability assay (PAMPA) for blood-brain barrier; assay type: in vitro ADME
# Text: The capacity of BQR and BAY to permeate the blood-brain barrier was first examined using the in vitro parallel artificial membrane permeability assay (PAMPA)^48 (FIG. 5A).
# [3] = test system: ERK1/2, c-Jun and 4EBP1 phosphorylation in SU_MB002 cells; assay: Phosphokinome proteome profiler array and time-course Western blotting; assay type: cell-based, human
# Procedure: To identify signaling changes accompanying DHODH inhibition in an unbiased fashion, changes in the phosphokinome of SU_MB002 cells were measured after treatment with BAY. […] Time-course Western blotting confirmed that ERK1/2 becomes phosphorylated within 24 h of BAY treatment, peaks at 48 h, and then decreases in expression at 72 h (FIG. 3I-J). […] These findings corroborated previous work that had implicated ERK1/2 silencing of mTORC1-mediated translation in activating apoptosis in cancer cells under severe metabolic stress^38. Indeed, both pharmacological inhibition or DHODH KO in G3MB-MYC induced both Go cell cycle arrest, determined via propidium iodide assessment of DNA content, (FIG. 3K, FIG. 8N) and apoptosis, determined via cleaved caspase 3 expression (FIG. 3I-J, FIG. 8M) and Annexin V staining (FIG. 3L, FIG. 8O). Such findings were also consistent with the enrichment of the hallmark apoptosis gene set in DHODH KO SU_MB002 cells (FIG. 3G). […] Pyrimidine starvation induces a metabolic stress response, which activates ERK1/2-mediated signaling, leading to suppression of mTORC1 activity, and initiation of apoptosis.
# Protein lysates were isolated from approximately 500,000-1,000,000 cells. Pellets were rinsed with PBS and then lysed in RIPA buffer containing HALT™ protease inhibitor cocktail (ThermoFisher). Protein concentrations were quantified using the Bradford Assay (BioRad). Protein size was resolved via SDS-PAGE and then transferred to PVDF for immunoblotting. Rabbit polyclonal anti-DHODH (Cell Signaling Technologies; catalogue #80981), rabbit monoclonal anti-EGR1 (Cell Signaling Technologies; catalogue #4145), rabbit polyclonal anti-phospho-ERK1/2 Thr202/Tyr204 (Cell Signaling Technologies; catalogue #9101), rabbit monoclonal anti-phospho-4E-BP1 Thr37/46 (Cell Signaling Technologies; catalogue #2855) were used at a 1:1000 dilution. Mouse monoclonal anti-GAPDH (Abcam; catalogue #ab8245) was used at a 1:5000 dilution. For development, horse-radish peroxidase-conjugated secondary anti-mouse (BioRad; catalogue #1706516) and anti-rabbit antibodies (BioRad; catalogue #1706515) were used with BioRad Clarity ECL reagents. Quantification was performed by analyzing mean pixel density of each band and then normalizing to GAPDH loading control. The proteome profiler array was obtained from R&D systems (catalogue ARY003C) and performed according to manufacturing guidelines, using 400 μg cellular lysate for each sample.
# [4] = Pharmacokinetic analysis of BAY2402234 in plasma and brain by LC-MS; assay type: in vivo; conditions: healthy mice undergoing treatment
# Procedure: In parallel to these experiments, subcutaneous flank xenografts were engrafted into two cohorts of mice, which were treated with the vehicle or R2. […] To investigate the pharmacokinetics of BAY in vivo, its concentration in plasma and brain tissues of healthy mice was directly quantified using an LC-MS approach. BAY was detected in both brains and plasma of mice undergoing treatment, however the plasma concentrations exceeded those of the brain by approximately 10-fold (FIG. 5H-I). To determine whether treatment with BAY affects de novo pyrimidine biosynthesis in vivo, changes in pyrimidine metabolism were measured in the brain in comparison to tumor tissues from the flank (FIG. 5J-K). Although BAY treatment impacted de novo pyrimidine metabolism in vivo in both brain and tumor tissues, with a similar pattern observed in vitro (FIG. 4A), the effect size was stronger in peripheral tumor tissue in comparison to brain tissue. Such findings further reflect the limited capacity for BAY to accumulate within the brain.
# Standards and samples were extracted by the addition of organic solvent, containing the internal standard (IS), for protein precipitation. […] Brains were analyzed similarly, with 20 μL of sample transferred to 180 μL of IS solution prior to analysis via LC-MS.
# [5] = SU_MB002, BAY-treated vs vehicle, 48 h
# [6] = SU_MB002, time-course Western blotting
smiles,measurement,setting,value
CCn1c(CO)nn(-c2cc(O[C@@H](C)C(F)(F)F)c(C(=O)Nc3c(F)cccc3Cl)cc2F)c1=O [BAY2402234],EGR1 expression (IHC),[1],induced EGR1 expression
same,p-4EBP1 expression (IHC),[1],decreased p-4EBP1 expression
same,penetration coefficient (log PE),[2],superior penetration coefficient (log PE) compared to BQR
same,phosphorylation of ERK1/2 (T202/Y204; T185/Y187),[3]; [5],Increased phosphorylation
same,phosphorylation of c-Jun (S63),[3]; [5],Increased phosphorylation
same,time of peak ERK1/2 phosphorylation,[3]; [6],48 h
same,time until ERK1/2 becomes phosphorylated,[3]; [6],≤ 24 h
same,phosphorylation of 4EBP1,[3]; time-course BAY treatment,decreased in a time-dependent fashion
same,plasma concentration relative to brain concentration,[4],approximately 10 fold
